Assays:
mu opiate receptor (MOR) = molecular target: T1, mu opiate receptor (MOR) (Rattus norvegicus, UniProt P33535); experiment: [35S]GTPγS binding assay using striatal membranes (MOR agonist activity); format: biochemical; set-up: MOR agonist activity, [35S]GTPγS binding to Gαo, 0.1 μM / MOR agonist activity, [35S]GTPγS binding to Gαo, 1 μM / MOR agonist activity, [35S]GTPγS binding to Gαo, 1 μM + BFNA: reference not given here; settings: for MOR agonist activity, [35S]GTPγS binding to Gαo, 0.1 μM: 0.1 μM compound; for MOR agonist activity, [35S]GTPγS binding to Gαo, 0.1 μM / MOR agonist activity, [35S]GTPγS binding to Gαo, 1 μM: striatal membranes; for MOR agonist activity, [35S]GTPγS binding to Gαo, 1 μM + BFNA: 1 μM compound + 1 μM β-funaltrexamine; for MOR agonist activity, [35S]GTPγS binding to Gαo, 1 μM: 1 μM compound
T1 construct: from tissue; host or cells: striatal tissue (membrane preparation)
Description: To assess the mu opiate receptor (MOR) agonist activity of positive compounds from the FLNA screening, compounds were tested in a [^35S]GTPγS binding assay using striatal membranes. Our previous study has shown that in striatal membranes, activation of MOR leads to an increase in [^35S]GTPγS binding to Gαo (Wang et al., 2005 Neuroscience 135:247-261).
Striatal tissue was homogenized in 10 volumes of ice cold 25 mM HEPES buffer, pH 7.4, which contained 1 mM EGTA, 100 mM sucrose, 50 μg/ml leupeptin, 0.04 mM PMSF, 2 μg/ml soybean trypsin inhibitor and 0.2% 2-mercaptoethanol. The homogenates were centrifuged at 800×g for 5 minutes and the supernatants were centrifuged at 49,000×g for 20 minutes. The resulting pellets were suspended in 10 volume of reaction buffer, which contained 25 mM HEPES, pH 7.5, 100 mM NaCl, 50 μg/ml leupeptin, 2 μg/ml soybean trypsin inhibitor, 0.04 mM PMSF and 0.02% […].
The resultant striatal membrane preparation (200 μg) was admixed and maintained (incubated) at 30° C. for 5 minutes in reaction buffer as above that additionally contained 1 mM MgCl2 and 0.5 nM [^35S]GTPγS (0.1 μCi/assay, PerkinElmer Life and Analytical Sciences) in a total volume of 250 μl and continued for 5 minutes in the absence or presence of 0.1-10 μM of an assayed compound of interest. The reaction was terminated by dilution with 750 μl of ice-cold reaction buffer that contained 20 mM MgCl2 and 1 mM EGTA and immediate centrifugation at 16,000×g for 5 minutes.
The resulting pellet was solubilized by sonicating for 10 seconds in 0.5 ml of immunoprecipitation buffer containing 0.5% digitonin, 0.2% sodium cholate and 0.5% NP-40. Normal rabbit serum (1 μl) was added to 1 ml of lysate and incubated at 25° C. for 30 minutes. Nonspecific immune complexes were removed by incubation with 25 μl of protein A/G-conjugated agarose beads at 25° C. for 30 minutes followed by centrifugation at 5,000×g at 4° C. for 5 minutes. The supernatant was divided and separately incubated at 25° C. for 30 minutes with antibodies raised against Gαo proteins (1:1,000 dilutions).
The immunocomplexes so formed were collected by incubation at 25° C. for 30 minutes with 40 μl of agarose-conjugated protein A/G beads and centrifugation at 5,000×g at 4° C. for 5 minutes. The pellet was washed and suspended in buffer containing 50 mM Tris-HCl, pH 8.0, and 1% NP-40. The radioactivity in the suspension was determined by liquid scintillation spectrometry. […] DAMGO (H-Tyr-D-Ala-Gly-N-MePhe-Gly-OH; 1 or 10 μM) was used as a positive control.

[1] = molecular target: Bn-VAKGL pentapeptide of filamin A (FLNA) (Homo sapiens, UniProt P21333); experiment: FITC-NLX-based FLNA screening assay (FLNA peptide binding assay); settings: 10 nM FITC-NLX; for Percent inhibition of FITC-NLX binding, 0.01 μM: 0.01 μM compound; for Percent inhibition of FITC-NLX binding, 0.1 μM: 0.1 μM compound; for Percent inhibition of FITC-NLX binding, 1 μM: 1 μM compound
Description: The final assay volume is 100 μl.
Compounds are tested in triplicate or quadruplicate.

T1 sequence (P33535 whole entry): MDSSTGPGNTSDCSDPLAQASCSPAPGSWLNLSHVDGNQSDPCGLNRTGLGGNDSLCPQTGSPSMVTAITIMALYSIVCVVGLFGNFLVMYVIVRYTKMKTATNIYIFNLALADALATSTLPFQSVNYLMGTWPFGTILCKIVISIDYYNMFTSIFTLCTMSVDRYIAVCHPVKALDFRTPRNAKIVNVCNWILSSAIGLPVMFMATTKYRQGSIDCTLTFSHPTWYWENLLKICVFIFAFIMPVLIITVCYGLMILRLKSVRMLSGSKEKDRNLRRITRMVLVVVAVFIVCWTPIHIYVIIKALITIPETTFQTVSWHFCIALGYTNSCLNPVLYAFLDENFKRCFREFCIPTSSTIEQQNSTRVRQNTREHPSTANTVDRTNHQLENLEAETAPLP

Row | SMILES | MOR agonist activity, [35S]GTPγS binding to Gαo, 0.1 μM (mu opiate receptor (MOR)) | MOR agonist activity, [35S]GTPγS binding to Gαo, 1 μM + BFNA (mu opiate receptor (MOR)) | MOR agonist activity, [35S]GTPγS binding to Gαo, 1 μM (mu opiate receptor (MOR)) | Percent inhibition of FITC-NLX binding, 0.01 μM [1] | Percent inhibition of FITC-NLX binding, 0.1 μM [1] | Percent inhibition of FITC-NLX binding, 1 μM [1]
1 | COc1ccc(C(=O)CC2c3c(cc4c(c3OC)OCO4)CC[N+]2(C)C)cc1OC.[I-] (stereo not drawn) [B0026] | 152.0% | 28.8% | 233.3% | 41.1% | 43.3% | 48.2%
2 | COc1ccc(C(=O)CC2c3c(cc4c(c3OC)OCO4)CC[N+]2(C)C)c(F)c1.[I-] (stereo not drawn) [B0027] | 140.9% | 21.6% | 266.9% | 40.2% | 46.7% | 49.8%
3 | COc1c2c(cc3c1C(CC(=O)CCc1ccc(O)cc1)[N+](C)(C)CC3)OCO2.[I-] (stereo not drawn) [B0028] | 199.1% | 55.0% | 357.7% | 38.2% | 42.8% | 49.1%
4 | COc1ccc(CC(=O)CC2c3c(cc4c(c3OC)OCO4)CC[N+]2(C)C)c(OC)c1 (stereo not drawn) [B0029] | 171.9% | 17.6% | 210.3% | 33.4% | 42.9% | 50.2%
5 | COc1ccccc1CC(O)CC1c2c(cc3c(c2OC)OCO3)CCN1C (stereo not drawn) [B0030] | 107.2% | 90.1% | 276.1% | 47.0% | 50.5% | 57.6%
6 | COc1c2c(cc3c1C(CC(=O)Cc1ccccc1C)[N+](C)(C)CC3)OCO2 (stereo not drawn) [B0031] | 210.8% | 28.8% | 272.0% | 36.2% | 44.2% | 50.5%
7 | COc1ccccc1CC(O)CC1c2c(cc3c(c2OC)OCO3)CC[N+]1(C)C.[I-] (stereo not drawn) [B0032] | 221.1% | 15.6% | 297.7% | 45.1% | 51.3% | 48.9%
8 | COc1ccc(C(=O)CC2c3c(cc4c(c3OC)OCO4)CC[N+]2(C)C)c(O)c1.[I-] (stereo not drawn) [B0033] | 149.3% | 41.9% | 188.9% | 42.1% | 46.8% | 49.4%
9 | COc1cccc(CCC(=O)CC2c3c(cc4c(c3OC)OCO4)CC[N+]2(C)C)c1 (stereo not drawn) [B0034] | 122.5% | 41.8% | 235.2% | 49.1% | 54.2% | 59.1%
10 | COc1cc(OC)cc(C(=O)CC2c3c(cc4c(c3OC)OCO4)CC[N+]2(C)C)c1.[I-] (stereo not drawn) [B0035] | 188.0% | 74.2% | 248.7% | 45.4% | 44.7% | 51.0%
11 | COc1cc(C(=O)CC2c3c(cc4c(c3OC)OCO4)CC[N+]2(C)C)cc(OC)c1OC (stereo not drawn) [B0037] | 119.8% | 106.2% | 186.0% | 47.4% | 53.0% | 52.4%
12 | COc1cccc(CC(=O)CC2c3c(cc4c(c3OC)OCO4)CC[N+]2(C)C)c1OC (stereo not drawn) [B0038] | 147.5% | 117.1% | 205.3% | 41.2% | 50.1% | 57.0%
13 | COc1c2c(cc3c1C(CC(=O)Cc1ccccc1Cl)[N+](C)(C)CC3)OCO2.[I-] (stereo not drawn) [B0039] | 171.8% | 78.3% | 290.5% | 43.3% | 45.7% | 50.9%
14 | COCOc1ccc(C(=O)CC2c3c(cc4c(c3OC)OCO4)CC[N+]2(C)C)cc1C.[I-] (stereo not drawn) [B0041] | 61.6% | 41.9% | 109.3% | 44.0% | 46.8% | 52.8%
15 | COc1ccc(CCC(=O)CC2c3c(cc4c(c3OC)OCO4)CC[N+]2(C)C)cc1OC.[I-] (stereo not drawn) [B0042] | 69.9% | 43.1% | 107.5% | 40.8% | 46.4% | 51.6%
16 | COc1ccc(CCC(=O)CC2c3c(cc4c(c3OC)OCO4)CC[N+]2(C)C)c(OC)c1 (stereo not drawn) [B0043] | 74.8% | 166.4% | 248.1% | 30.8% | 39.2% | 46.8%
17 | COc1ccc(OC)c(CCC(=O)CC2c3c(cc4c(c3OC)OCO4)CC[N+]2(C)C)c1 (stereo not drawn) [B0044] | 87.3% | 134.6% | 170.0% | 35.2% | 39.5% | 44.4%
18 | COc1ccccc1CCC(=O)CC1c2c(cc3c(c2OC)OCO3)CC[N+]1(C)C (stereo not drawn) [B0045] | 129.3% | 83.8% | 193.1% | 63.2% | 68.2% | 73.9%
19 | COc1ccc(CCC(O)CC2c3c(cc4c(c3OC)OCO4)CCN2C)cc1 (stereo not drawn) [B0048] | 185.1% | 78.5% | 223.4% | 34.7% | 41.9% | 43.9%
20 | COc1ccc(CCC(O)CC2c3c(cc4c(c3OC)OCO4)CC[N+]2(C)C)cc1 (stereo not drawn) [B0049] | 181.6% | 133.2% | 364.0% | 32.2% | 40.1% | 47.1%
